Laboratory results: patent US20220265723A1, “NON-VIRAL MODIFICATION OF MESENCHYMAL STEM CELLS” (NATIONAL UNIVERSITY OF SINGAPORE, priority 2019, published 2022)

tested on: not given; assay: not given; conditions: active drug formed from the prodrug of the system; read-out: Potency, IC50 (μM) Drug; cited from earlier work

SMILES | IC50 [µM]
O=c1[nH]cc(F)c(=O)[nH]1 [5FU, 5-fluorouracil] | 4 to 23.5
CS(=O)(=O)OCCN(CCCl)c1ccc(C(=O)O)cc1 [CMBA] | 8 to 65
COc1cccc2c1C(=O)c1c(O)c3c(c(O)c1C2=O)C[C@@](O)(C(=O)CO)C[C@@H]3O[C@H]1C[C@H](N)[C@H](O)[C@H](C)O1 [Doxorubicin] | 0.012
CCc1c2c(nc3ccc(O)cc13)-c1cc3c(c(=O)n1C2)COC(=O)[C@]3(O)CC [SN-38] | 0.003 to 0.011
O=c1[nH]c(=O)n([C@H]2C[C@H](O)[C@@H](CO)O2)cc1F [5-FUdR] | 0.0023
Cc1ncnc2nc[nH]c12 | 3.7

same assay, conditions: per enzyme/prodrug system; cited from earlier work

SMILES | Potential of activation (fold)
Cc1ncnc2c1ncn2[C@H]1C[C@H](O)[C@@H](CO)O1 [6-MePdR] | 25-1,000 fold
COc1cccc2c1C(=O)c1c(O)c3c(c(O)c1C2=O)C[C@@](O)(C(=O)CO)C[C@@H]3O[C@H]1C[C@H](N)[C@H](O)[C@H](C)O1 [Doxorubicin] | 21 fold
COc1ncnc2c1ncn2[C@@H]1O[C@H](CO)[C@@H](O)[C@@H]1O [ara-M] | >2,000 fold
C[C@H]1O[C@@H](n2cc(F)c(=O)[nH]c2=O)[C@H](O)[C@@H]1O [5′-DFUR] | 7000 fold
NC(=O)c1cc(N2CC2)c([N+](=O)[O-])cc1[N+](=O)[O-] [CB1954] | >50,000 fold

same assay, conditions: prodrug of the enzyme/prodrug system; read-out: Potency, IC50 (μM) Prodrug; cited from earlier work

SMILES | IC50 [µM]
Nc1nc(O)c2ncn(COC(CO)CO)c2n1 [GCV, ganciclovir] | 200 to 600
CCc1c2c(nc3ccc(OC(=O)N4CCC(N5CCCCC5)CC4)cc13)-c1cc3c(c(=O)n1C2)COC(=O)[C@]3(O)CC [CPT-11] | 1.6 to 8.1
Nc1nc(=S)c2[nH]cnc2[nH]1 [6-TG] | 0.5
Cc1ncnc2c1ncn2[C@H]1C[C@H](O)[C@@H](CO)O1 [6-MePdR] | > 200
CS(=O)(=O)OCCN(CCCl)c1ccc(C(=O)N[C@@H](CCC(=O)O)C(=O)O)cc1 [CMDA] | 1700 to 3120
O=P1(N(CCCl)CCCl)NCCCO1 (centres unmarked) [CP] | ~4000
Nc1ccn([C@@H]2O[C@H](CO)[C@@H](O)[C@@H]2O)c(=O)n1 [ara-C] | 0.3 to 0.6
COc1ncnc2c1ncn2[C@@H]1O[C@H](CO)[C@@H](O)[C@@H]1O [ara-M] | > 2000
O=c1[nH]c(=S)c2[nH]cnc2[nH]1 [6-TX] | > 50
O=P1(NCCCl)OCCCN1CCCl (centres unmarked) [IF] | ~4000
C[C@H]1O[C@@H](n2cc(F)c(=O)[nH]c2=O)[C@H](O)[C@@H]1O [5′-DFUR] | 17
NC(=O)c1cc(N2CC2)c([N+](=O)[O-])cc1[N+](=O)[O-] [CB1954] | > 1000

tested on: CDy::UPRT_AT-MSCs; assay: Sensitivity of modified AT-MSCs to 5FC and 5FU, MTS assay; assay type: cell-based, human; conditions: 100 μg/mL 5FU, 5 days
Method: The cell viability at each time point was measured by standard MTS assay. At various time points, samples without 5FC treatment served as control. […] MTS assay were used to measure cell viability post treatment. Conditions without 5FU treatment was taken as 100%. Results were presented as mean±SD (n=4). […] Isotype antibodies served as respective controls. […] At the end of incubation, cells were stained with Alizarin red S. Calcium deposits stained with Alizarin red S were one of the phenotype indicating differentiated AT-MSCs. […] Fourteen days later, cells were stained with Oil Red-O. This dye stained for oil droplets visible in the cells, indicative of adipogenic differentiation. The images were captured at 20× magnification;
Quadruplicates of AT-MSC, MKN1, MKN45, MDA-MB-231 (10,000 cells per well) and U-251MG (4000 cells per well) for each treatment were plated into 96-well plates. […] One to five days later, plates were subjected to the CellTiter 96 Aqueous One Solution Cell Proliferation Assay (Promega). The colorimetric read out was measured spectrophotometrically at 490 nm. Results were expressed as the percentage of cell viability, in relative to cells in condition without 5-FC or 5-FU (set to 100%).

SMILES | susceptibility of CDy::UPRT_AT-MSCs versus unmodified AT-MSCs
O=c1[nH]cc(F)c(=O)[nH]1 [5FU, 5-fluorouracil] | increased susceptibility of suicide effect

same assay, conditions: 150 μg/mL 5FC, over time

SMILES | cell viability of CDy::UPRT modified AT-MSCs
Nc1nc(=O)[nH]cc1F [5FC, 5-fluorocytosine] | reduced cell viability over time

tested on: not given; assay: not given; conditions: systems: CA/CPT-11, CD/5-FC, CPG2/CMDA, CJS278, Cyt-450, dCK/ara-C, HSV-TK, NR/CB1954, PNP/6-MePdR, TP/5′-DFUR, VZV-TK/ara-M, XGPRT/6-TX, 6-TG; cited from earlier work

SMILES | Degree of activation (fold)
Nc1nc(=S)c2[nH]cnc2[nH]1 [6-TG] | 6-TG: 10 fold
Cc1ncnc2c1ncn2[C@H]1C[C@H](O)[C@@H](CO)O1 [6-MePdR] | 40 fold
COc1cccc2c1C(=O)c1c(O)c3c(c(O)c1C2=O)C[C@@](O)(C(=O)CO)C[C@@H]3O[C@H]1C[C@H](N)[C@H](O)[C@H](C)O1 [Doxorubicin] | 11 fold
Nc1ccn([C@@H]2O[C@H](CO)[C@@H](O)[C@@H]2O)c(=O)n1 [ara-C] | 2-100 fold
COc1ncnc2c1ncn2[C@@H]1O[C@H](CO)[C@@H](O)[C@@H]1O [ara-M] | 55-600 fold
O=c1[nH]c(=S)c2[nH]cnc2[nH]1 [6-TX] | 6-TX: >20; fold
C[C@H]1O[C@@H](n2cc(F)c(=O)[nH]c2=O)[C@H](O)[C@@H]1O [5′-DFUR] | 165 fold
NC(=O)c1cc(N2CC2)c([N+](=O)[O-])cc1[N+](=O)[O-] [CB1954] | 14-10,000 fold

tested on: prodrug-activating enzyme of each system: CA, CD, CPG2, Cyt-450, dCK, HSV-TK, NR, PNP, TP, VZV-TK; assay: not given; conditions: systems: CA/CPT-11, CD/5-FC, CPG2/CMDA, Cyt-450/CP, IF, dCK/ara-C, HSV-TK/GCV, ACV, NR/CB1954, PNP/6-MePdR, TP/5′-DFUR, VZV-TK/ara-M; read-out: KM (S0.5); cited from earlier work

SMILES | Km [µM]
Cc1ncnc2c1ncn2[C@H]1C[C@H](O)[C@@H](CO)O1 [6-MePdR] | 14 to 23
CS(=O)(=O)OCCN(CCCl)c1ccc(C(=O)N[C@@H](CCC(=O)O)C(=O)O)cc1 [CMDA] | 3.4
O=P1(N(CCCl)CCCl)NCCCO1 (centres unmarked) [CP] | 300
Nc1ccn([C@@H]2O[C@H](CO)[C@@H](O)[C@@H]2O)c(=O)n1 [ara-C] | 25.6
COc1ncnc2c1ncn2[C@@H]1O[C@H](CO)[C@@H](O)[C@@H]1O [ara-M] | 56
O=P1(NCCCl)OCCCN1CCCl (centres unmarked) [IF] | 480
C[C@H]1O[C@@H](n2cc(F)c(=O)[nH]c2=O)[C@H](O)[C@@H]1O [5′-DFUR] | 325 to 433
NC(=O)c1cc(N2CC2)c([N+](=O)[O-])cc1[N+](=O)[O-] [CB1954] | 900
